Experimental data from patent US20260250246A1, “PSILOCYBIN ANALOGS, SALTS, COMPOSITIONS, AND METHODS OF USE” (priority 2021, published 2026).
Where “and” joins values, the source holds several entries; their conditions need not be identical. Equal entries are not always repeated. Structures can show the parent of a compound that is named as a salt.

Tests used:
[1] = Observation of freeze dried salt; type: physicochemical; conditions: freeze dried from 1,4-dioxane
[2] = Maturation in 12 different solvents with thermal cycling (XRPD); type: physicochemical; conditions: thermal cycling room temperature/50° C., 3 days
Procedure: The resulting slurries were subjected to maturation with thermal cycling between room temperature and 50° C. (4 hours at each condition) for 3 days. Solids were then analysed by XRPD.

[3] = Psilocin-d0/psilocin-d10 and psilocybin PK comparative study in rats (oral gavage, intravenous bolus; plasma and brain); conditions: for oral bioavailability: co-dosing of PI-d0 and PI-d10
[4] = Stability studies in sodium citrate buffer; type: physicochemical
Procedure: (§1) Preparation of 0.1 M sodium citrate buffer (pH 6.01): 2.427 g of sodium citrate dihydrate and 0.336 g of citric acid were dissolved in 80 ml of DI water. The pH was adjusted to 6.0 using a 1 M NaOH solution. The final volume was adjusted to 100 ml.

[5] = Stability studies in acid solutions (PI salt solutions); type: physicochemical; conditions: 40° C.
Source text: Ascorbic acid (AsA), acetic acid (AcA), tartaric acid (TA), fumaric acid (FA), citric acid (CA), malic acid (MA), benzenesulfonic acid (BSA), stearic acid (SA), sodium citrate dihydrate, monosodium phosphate hydrate, disodium phosphate were purchased from Sigma Aldrich. Aluminum (III) chloride (AlCl3) and iron (III) chloride (FeCl3) were purchased from Sigma Aldrich. Antioxidants, i.e., ethylenediaminetetraacetic acid (EDTA), ascorbic acid (AsA), L-cysteine (Cys), sodium metabisulfite (NamBiSO3) and propyl gallate (PG) were purchased from Sigma Aldrich. Hydroxypropyl-β-cyclodextrin (CAVASOL® W7 HP, CAVITRON® W7 HP7) and methyl-β-cyclodextrin (CAVASOL® W7 M) were provided by DuPont.
The following chromatographic conditions were used:
Diluent. The diluent used in the below studies was prepared as follows: 100 mL of acetonitrile (ACN) was mixed with 800 mL of water and 100 mL of 1.0 M citric acid and mixed well to prepare 1 L of diluent.
The stability of psilocin in 0.1 M solutions of various acids was tested.
Test solutions: To prepare the test solutions, 0.1 M solutions of AsA, AcA, TA, FA, CA, MA, BSA, and SA were prepared in DI water.

[6] = Long term stability studies with citric acid and sodium citrate buffer; type: physicochemical
Procedure: The long-term stability (up to 25 days) of psilocin in a citric acid solution (0.1 M, pH 1.60) and a sodium citrate buffer (0.1 M, pH 6.01) at 4° C. and 23° C. was assessed.
as §1
Test solutions: Psilocin (1 mg/ml) was mixed with (i) sodium citrate buffer (0.1 M, pH 6.01) and (ii) citric acid solution (0.1 M, pH 1.60) in 1:1 v/v. The samples were stored at 4° C. and 23° C., and aliquots were sampled at designated timepoints (days 0, 7, 17, and 25).

[7] = Stability studies with antioxidants; conditions: EDTA, ascorbic acid, L-cysteine, sodium metabisulfite, propyl gallate; 40° C.
[8] = Stability studies in citric acid solution
[9] = Stability studies with cyclodextrin complexes; conditions: 40° C., with or without metal salts
[10] = Pharmacokinetics of psilocin-d10 and psilocybin in male beagle dog, powder in capsule (PIC) or orally disintegrating tablet (ODT)
[11] = Psilocin-d10 pharmacokinetics study in dogs following oral gavage and intravenous (bolus) administrations
[12] = Anti-solvent precipitation: DMF or DMSO solution added to water; type: physicochemical
Procedure: The following techniques were tried but were not successful in the preparation of amorphous material: • i) Crash cooling freeze drying. […] Instead, solutions were formed which became dark within 4 hours, signifying degradation

[13] = Stability of amorphous form from melt/crash cooling on standing; type: physicochemical; conditions: amorphous free base
[14] = ODT, psilocin-d10 dosed 5 mg (nominal 0.5 mg/kg), analyte psilocin-d10, male beagle dog plasma, Mean
[15] = PIC, psilocin-d10 dosed 5 mg (nominal 0.5 mg/kg), analyte psilocin-d10, male beagle dog plasma, Mean
[16] = female dog plasma, single intravenous (bolus) 0.20 mg/kg, Mean, N=3
[17] = female dog plasma, single intravenous (bolus) 0.20 mg/kg, Median, N=3
[18] = female dog plasma, single intravenous (bolus) 0.20 mg/kg, individual animals 60F, 61F, 723F, listed as Psilocin-d10, 0.2 mg/kg
[19] = female dog plasma, single oral (gavage) 1.00 mg/kg, Median, N=3
[20] = female dog plasma, single oral (gavage) 1.00 mg/kg, individual animals 60F, 61F, 723F, listed as Psilocin-d10, 1 mg/kg

CN(C)CCc1c[nH]c2cccc(O)c12 [Compound I-7e, Citrate Salt of 3-(2-(dimethylamino)ethyl)-1H-indol-4-ol]
hygroscopicity of isolated solid [1]: hygroscopic

[2H]C([2H])([2H])N(C([2H])([2H])[2H])C([2H])([2H])C([2H])([2H])c1c[nH]c2cccc(O)c12 [Compound I-3j, Benzoate Salt of 3-(2-(bis(methyl-d3)amino)ethyl-1,1,2,2-d4)-1H-indol-4-ol]
crystalline form by XRPD after maturation in 12 solvents [2]: retained their initial crystalline form

CN(C)CCc1c[nH]c2cccc(OP(=O)(O)O)c12 [psilocybin]
Tmax ([3]; rat plasma, Group 3: psilocybin intravenous (bolus) 2.8 mg/kg, label = analyte, IAD = immediately after dosing): IAD | brain concentrations compared to plasma ([3]; rats, after IV dosing): brain concentrations are low

CN(C)CCc1c[nH]c2cccc(O)c12 [Compound I-7, 3-(2-(dimethylamino)ethyl)-1H-indol-4-ol]
solution stability (% psilocin remaining) ([4]; 0.1 M sodium citrate buffer, 4° C. and room temperature): greatly stabilized | degradation of psilocin ([4]; 0.1 M sodium citrate buffer, 40° C.): 10-15% | effect of metal salts (Fe3+ and Al3+) on psilocin ([4]; in 0.1 M citrate buffer): no detrimental effects | solution stability (% psilocin remaining) ([4]; non-citrate buffered, with Fe3+ and Al3+ metal ions): significant psilocin degradation | solution stability (% psilocin remaining) ([4]; without sodium citrate buffer, 4, 23, 40° C., by 18 hour time point): nearly all psilocin being degraded | oral bioavailability ([3]; rats): 7.52% | solution stability (% psilocin remaining) ([5]; 0.1 M acid solutions, with or without metal salts, up to 24): excellent stability | solution stability (% psilocin remaining) ([5]; without acid, within 24 hours): nearly all psilocin being degraded | solution stability (% psilocin remaining) ([5]; without acid, with Fe3+ and Al3+ metal ions): significant psilocin degradation | long-term solution stability ([6]; citric acid 0.1 M, pH 1.60, 23° C. and 4° C., 25 days): only minimal degradation | time psilocin remained stable ([6]; sodium citrate buffer pH 6.01, cold storage 4° C.): up to 17 days | long-term solution stability ([6]; sodium citrate buffer pH 6.01, room temperature): degradation of psilocin began within a week | stability against metal salts with antioxidants [7]: none of the antioxidants tested were able to provide stability | psilocin stabilization at 24 hour time point ([8]; small quantities of citric acid, 40° C., 24 hour): 30% | solution stability (% psilocin remaining) ([8]; small quantities of citric acid, pH 3.2, 4° C. and 23° C.): greatly enhanced the stability | solution stability (% psilocin remaining) ([8]; without citric acid, 4, 23 and 40° C., by 18 hour time point): nearly all psilocin being degraded | solution stability (% psilocin remaining) ([8]; without citric acid, with Fe3+ and Al3+ metal ions): significant psilocin degradation | stability with cyclodextrins [9]: did not impart stability

CN(C)CCc1c[nH]c2cccc(O)c12 [Compound I-7a, Benzenesulfonate Salt of 3-(2-(dimethylamino)ethyl)-1H-indol-4-ol]
crystalline form by XRPD after maturation in 12 solvents [2]: retained their initial crystalline form

CN(C)CCc1c[nH]c2cccc(O)c12 [Compound I-7b, Tartrate Salt of 3-(2-(dimethylamino)ethyl)-1H-indol-4-ol]
crystalline form by XRPD after maturation in 12 solvents [2]: retained their initial crystalline form

[2H]C([2H])([2H])N(C([2H])([2H])[2H])C([2H])([2H])C([2H])([2H])c1c[nH]c2cccc(O)c12 [Compound I-3, 3-(2-(bis(methyl-d3)amino)ethyl-1,1,2,2-d4)-1H-indol-4-ol]
AUCINF_obs [10, 14]: 213 ng·h/mL | AUClast [10, 14]: 199 ng·h/mL | Cl_F_obs [10, 14]: 40.33 mL/min/kg | Cmax [10, 14]: 67.2 ng/mL | Tmax [10, 14]: 0.542 h | Vz_F_obs [10, 14]: 6.9 L/kg | AUClast [10, 15]: 181 ng·h/mL | Cl_F_obs [10, 15]: 43.5 mL/min/kg | Cmax [10, 15]: 60 ng/mL | T½ [10, 15]: 2.01 h | Vz_F_obs [10, 15]: 7.6 L/kg | psilocin-d10 exposure compared to psilocin exposure after administration of psilocybin ([10]; dogs, independent of formulation): twice as high | oral bioavailability ([3]; rats): 12.1% | time of last detectable plasma level ([11]; dogs, oral administration): 9 h | Cmax [11, 16]: 45.8 ng/mL | t1/2 [11, 16]: 1.37 h | AUC0-inf [11, 17]: 95.8 ng·h/mL | AUC0-t [11, 17]: 80.7 ng·h/mL | CL [11, 17]: 34.83 mL/min/kg | Cmax [11, 17]: 45.9 ng/mL | DN Cmax [11, 17]: 230 (ng/mL)/(mg/kg) | Vss [11, 17]: 3.96 L/kg | AUC0-inf [11, 18]: 95.8 ng·h/mL | AUC0-t [11, 18]: 80.7 ng·h/mL | CL [11, 18]: 34.83 mL/min/kg | Cmax [11, 18]: 45.9 ng/mL and 43.9 ng/mL | DN AUC0-inf [11, 18]: 500 (h*ng/mL)/(mg/kg) | DN Cmax [11, 18]: 230 (ng/mL)/(mg/kg) and 220 (ng/mL)/(mg/kg) | Vss [11, 18]: 3.96 L/kg | AUC0-inf [11, 19]: 414 ng·h/mL | AUC0-t [11, 19]: 399 ng·h/mL | t1/2 [11, 19]: 1.80 h | AUC0-inf [11, 20]: 426 ng·h/mL and 414 ng·h/mL | AUC0-t [11, 20]: 404 ng·h/mL and 399 ng·h/mL | Cmax [11, 20]: 126 ng/mL | t1/2 [11, 20]: 1.80 h and 1.82 h and 1.69 h | time until solutions became dark, signifying degradation [12]: ≤ 4 h | stability of amorphous form [13]: not stable for prolonged periods

CN(C)CCc1c[nH]c2cccc(O)c12 [Compound I-7j, Benzoate Salt of 3-(2-(dimethylamino)ethyl)-1H-indol-4-ol]
crystalline form by XRPD after maturation in 12 solvents [2]: retained their initial crystalline form

CN(C)CCc1c[nH]c2cccc(O)c12 [Compound I-7c, Hemi-Fumarate Salt of 3-(2-(dimethylamino)ethyl)-1H-indol-4-ol]
crystalline form by XRPD after maturation in 12 solvents [2]: complex polymorphism
